Reference: patent publication US20090099094A1, “Use of Somatostatin Agonists to Treat Medullary Thyroid Carcinoma” (priority 2007, published 2009)

Tests used:
MTC = settings: cited from earlier work; for suppressing calcitonin secretion: MTC, commercially available somatostatin analogs; for reducing tumour size and/or increasing patient survival rate: treatment of MTC patients
SSTR1 = SSTR1 (Homo sapiens, UniProt P30872); assay: SSTR receptor binding affinity (Ki), SSTR1; settings: read-out: SSTR Specificity Ki SSTR1
SSTR4 = SSTR4 (Homo sapiens, UniProt P31391); assay: SSTR receptor binding affinity (Ki), SSTR4; settings: read-out: SSTR Specificity Ki SSTR4
SSTR3 = SSTR3 (Homo sapiens, UniProt P32745); assay: SSTR receptor binding affinity (Ki), SSTR3; settings: read-out: SSTR Specificity Ki SSTR3
[1] = tested on: medullary thyroid carcinoma primary cultures; assay: Calcitonin secretion by MTC primary cultures (IRMA); assay type: cell-based, human; settings: 10^−8 M, six hours
Protocol: Primary cultured cells from 18 selected MTC samples were incubated in ninety six well plates for six hours with each SSTR agonist at 10^−8 M. Control cells were treated with vehicle solution. Calcitonin levels in the conditioned medium were measured by immunoradiometric assay (IRMA) among eight replicates in the conditioned medium from treated and untreated (control) primary cultured cells. […] Data are expressed as the mean±SE percent hormone secretion inhibition vs. untreated control cells. *P<0.05 and **P<0.01 vs. control.
(§1) Tissue samples were surgically removed in accordance with the guidelines of the local comnmittees on human research. Thyroid tissue samples were obtained under sterile conditions and immediately minced in RPMI 1640 tissue culture medium. Tissues were incubated with 0.25% trypsin overnight at 4° C. and then dissociated using 0.35% collagenase (Sigma, Milano, ITALY) and 1% trypsin at 37° C. for sixty minutes. Cell suspensions were filtered through double layers of gaus(e and washed twice with serum-free F-12 Ham's Nutrient Modified Medium (F-12; Euroclone Ltd, Wetherby, UNITED KINGDOM). Tumor cells were re-suspended in F-12 with 10% fetal bovine serum and antibiotics, seeded in ninety-six well culture plates (˜2×10^4 cells/well) and incubated at 37° C. in a humidified atmosphere of 5% CO2 and 95% air according to known procedures (Zatelli, M. C. et al., Endocrinology, 2005, 146:2692-8). Approximately twenty-four hours later, the prepared cells were treated with the selected somatostatin agonist and were monitored for hormone secretion and overall viability. Informed consent of the patients was obtained for disclosing clinical investigation and performing the in vitro study.
Calcitonin levels were measured in a conditioned medium from treated and untreated primary cultured cells with the calcitonin-U.S.-IRMA® kit (Biosource Europe, Nivelles, BELGIUM) after a six hour treatment with […] of the selected somatostatin analogs. The intra- and inter-assay variation coefficients were 1.9-2.7% and 1.9-3.3%, respectively. The detection limit was 0.8 pg/ml. Hormone assays were performed in duplicate of conditioned medium from treated cells. Results were obtained by determining the mean value among eight replicates.
In order to investigate the effects of somatostatin analogs on hormone secretion, calcitonin and CgA levels were measured in conditioned media collected from primary cultures derived from the selected eighteen medullary thyroid carcinoma treated with or without each somatostatin analog at 10^−8M for six hours.
According to this criterion, […] as “responders” (group A: primary cultures #3, #5, #6, #7, #11, #12, #13, #14, #15, #16) and nine as “non responders” (group B: primary cultures #1, #2, #4, #8, #9, #10, #17, #18).

[2] = tested on: medullary thyroid carcinoma primary cultures; assay: Cell viability of MTC primary cultures (MTT); assay type: cell-based, human; settings: 10^−8 M, forty-eight hours
Protocol: Primary cultured cells from 18 selected MTC samples were incubated in ninety six well plates for forty eight hours with each SSTR agonist at 10^−8 M. Control cells were treated with vehicle solution. Cell viability was measured by a colorimetric method among eight replicates from treated and untreated (control) primary cultured cells. […] Data are expressed as the mean±SE percent cell viability reduction vs. untreated control cells. *P<0.05, and **P<0.01 vs. control.
as §1
The effects of the tested somatostatin analogs on medullary thyroid carcinoma primary culture cell viability were assessed with a Cell Proliferation Kit I MTT® (Roche Diagnostics GmbH, Mannheim, GERMANY) which employs a colorimetric method for determining the number of viable cells in proliferation assays. Primary cultured cells were plated in ninety-six multiwell plates (2×10^4 cells/well) and incubated for forty-eight hours in a medium supplemented with 10% fetal bovine serum in the presence or absence of each somatostatin analog at 10^−8M. Treatments were renewed after the first twenty-four hours of incubation.
In order to investigate the effects of somatostatin analogs on medullary thyroid carcinoma cell viability, an MTT assay was performed in primary cultures derived from the eighteen selected medullary thyroid carcinoma samples, treated with or without each somatostatin analog at […] for forty-eight hours. Percent cell viability reduction compared to a control in each primary culture under treatment with each somatostatin analog is reported in Table 6.

[3] = MTC primary culture #1 (non responder)
[4] = MTC primary culture #2 (non responder)
[5] = MTC primary culture #3 (responder)
[6] = MTC primary culture #4 (non responder)
[7] = MTC primary culture #5 (responder)
[8] = MTC primary culture #6 (responder)
[9] = MTC primary culture #7 (responder)
[10] = MTC primary culture #8 (non responder)
[11] = MTC primary culture #9 (non responder)
[12] = MTC primary culture #10 (non responder)
[13] = MTC primary culture #11 (responder)
[14] = MTC primary culture #12 (responder)
[15] = MTC primary culture #13 (responder)
[16] = MTC primary culture #14 (responder)
[17] = MTC primary culture #15 (responder)
[18] = MTC primary culture #16 (responder)
[19] = MTC primary culture #17 (non responder)
[20] = MTC primary culture #18 (non responder)

SSTR1, sequence (P30872 whole entry): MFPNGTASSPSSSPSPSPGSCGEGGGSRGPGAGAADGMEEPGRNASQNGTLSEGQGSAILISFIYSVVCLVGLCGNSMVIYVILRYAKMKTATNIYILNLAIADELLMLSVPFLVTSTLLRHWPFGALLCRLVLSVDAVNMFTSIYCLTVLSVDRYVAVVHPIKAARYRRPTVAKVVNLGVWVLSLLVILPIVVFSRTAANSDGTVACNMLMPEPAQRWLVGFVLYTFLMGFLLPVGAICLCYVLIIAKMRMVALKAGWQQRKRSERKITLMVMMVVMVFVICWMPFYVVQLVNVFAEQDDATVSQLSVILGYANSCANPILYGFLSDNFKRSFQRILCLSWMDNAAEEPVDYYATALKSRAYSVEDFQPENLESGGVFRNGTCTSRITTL
SSTR3, sequence (P32745 whole entry): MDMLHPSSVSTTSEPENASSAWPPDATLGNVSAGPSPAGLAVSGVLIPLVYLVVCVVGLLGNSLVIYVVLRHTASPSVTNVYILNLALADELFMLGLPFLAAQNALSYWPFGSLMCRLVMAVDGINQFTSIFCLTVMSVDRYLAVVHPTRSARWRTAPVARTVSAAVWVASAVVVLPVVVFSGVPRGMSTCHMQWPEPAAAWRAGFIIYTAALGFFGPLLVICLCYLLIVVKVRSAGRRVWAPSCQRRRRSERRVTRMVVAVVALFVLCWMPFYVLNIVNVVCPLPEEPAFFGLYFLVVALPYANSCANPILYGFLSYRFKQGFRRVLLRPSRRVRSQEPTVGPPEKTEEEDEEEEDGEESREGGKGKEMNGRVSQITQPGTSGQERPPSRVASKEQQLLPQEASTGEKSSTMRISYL
SSTR4, sequence (P31391 whole entry): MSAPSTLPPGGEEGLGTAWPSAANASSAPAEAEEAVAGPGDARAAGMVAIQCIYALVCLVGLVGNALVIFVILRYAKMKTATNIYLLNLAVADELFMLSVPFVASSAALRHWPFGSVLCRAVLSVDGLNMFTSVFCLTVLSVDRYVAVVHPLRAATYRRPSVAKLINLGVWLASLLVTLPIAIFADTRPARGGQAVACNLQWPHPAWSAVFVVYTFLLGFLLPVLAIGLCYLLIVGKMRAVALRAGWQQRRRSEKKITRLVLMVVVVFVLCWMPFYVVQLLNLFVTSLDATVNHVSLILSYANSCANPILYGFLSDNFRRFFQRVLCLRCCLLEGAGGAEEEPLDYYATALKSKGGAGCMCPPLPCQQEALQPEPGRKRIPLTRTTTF

## C[C@@H](O)[C@@H]1NC(=O)[C@H](CCCCN)NC(=O)[C@@H](Cc2c[nH]c3ccccc23)NC(=O)[C@H](Cc2ccccc2)NC(=O)[C@@H](NC(=O)[C@H](N)Cc2ccccc2)CSSC[C@@H](C(=O)N[C@H](CO)[C@@H](C)O)NC1=O [octreotide]
MTC
  suppressing calcitonin secretion: lack of efficacy
  reducing tumour size and/or increasing patient survival rate: little effect

## CC[C@@H]1NC(=O)[C@H](CCCCN)NC(=O)[C@@H](Cc2c[nH]c3ccccc23)NC(=O)[C@H](Cc2ccc(O)cc2)NC(=O)[C@@H](NC(=O)[C@@H](Cc2ccccc2)NC(=O)CN2CCN(CCO)CC2)CSSC[C@@H](C(=O)N[C@H](C(N)=O)[C@@H](C)O)NC1=O [4-(2-Hydroxyethyl)-1-piperazinylacetyl-D-Phe-c[Cys-Tyr-D-Trp-Lys-Abu-Cys]-Thr-NH2]
SSTR1
  Ki: 4.52 µM
SSTR4
  Ki: 6.36 µM

## CC(C)[C@@H]1NC(=O)[C@H](CCCCN)NC(=O)[C@@H](Cc2c[nH]c3ccccc23)NC(=O)[C@H](Cc2ccc(O)cc2)NC(=O)[C@@H](NC(=O)[C@H](N)Cc2ccc3ccccc3c2)CSSC[C@@H](C(=O)N[C@H](C(N)=O)[C@@H](C)O)NC1=O [lanreotide, D-β-Nal-c[Cys-Tyr-D-Trp-Lys-Val-Cys]-Thr-NH2, reference compound]
SSTR1
  Ki: 2.13 µM
SSTR3
  Ki: 0.098 µM
[1]; [3]
  % CT secretion inhibition vs. control: −5.2%
[1]; [4]
  % CT secretion inhibition vs. control: 21.7%
[1]; [5]
  % CT secretion inhibition vs. control: −22.6%
[1]; [6]
  % CT secretion inhibition vs. control: 34.7%
[1]; [7]
  % CT secretion inhibition vs. control: −19.0%
[1]; [8]
  % CT secretion inhibition vs. control: −18.0%
[1]; [9]
  % CT secretion inhibition vs. control: −44.6%
[1]; [10]
  % CT secretion inhibition vs. control: 14.7%
[1]; [11]
  % CT secretion inhibition vs. control: 9.8%
[1]; [12]
  % CT secretion inhibition vs. control: 22.9%
[1]; [13]
  % CT secretion inhibition vs. control: −25.1%
[1]; [14]
  % CT secretion inhibition vs. control: −20.6%
[1]; [15]
  % CT secretion inhibition vs. control: −42.5%
[1]; [16]
  % CT secretion inhibition vs. control: −19.8%
[1]; [17]
  % CT secretion inhibition vs. control: −20.9%
[1]; [18]
  % CT secretion inhibition vs. control: −34.3%
[1]; [19]
  % CT secretion inhibition vs. control: 8.5%
[1]; [20]
  % CT secretion inhibition vs. control: −10.8%
[1]; group A (lanreotide responders) mean
  calcitonin secretion reduced / inhibited by: 27%
[1]; group A (lanreotide responsive) mean
  calcitonin secretion, change vs. control (signed, negative = reduced): −27%
[2]; [3]
  % cell viability reduction vs. control: −6.1%
[2]; [4]
  % cell viability reduction vs. control: −57.0%
[2]; [5]
  % cell viability reduction vs. control: 1.5%
[2]; [6]
  % cell viability reduction vs. control: −25.8%
[2]; [7]
  % cell viability reduction vs. control: 13.4%
[2]; [8]
  % cell viability reduction vs. control: 9.7%
[2]; [9]
  % cell viability reduction vs. control: 54.4%
[2]; [10]
  % cell viability reduction vs. control: −7.9%
[2]; [11]
  % cell viability reduction vs. control: −8.6%
[2]; [12]
  % cell viability reduction vs. control: 7.0%
[2]; [13]
  % cell viability reduction vs. control: −11.2%
[2]; [14]
  % cell viability reduction vs. control: 3.5%
[2]; [15]
  % cell viability reduction vs. control: 23.1%
[2]; [16]
  % cell viability reduction vs. control: 1.8%
[2]; [17]
  % cell viability reduction vs. control: −8.3%
[2]; [18]
  % cell viability reduction vs. control: −15.8%
[2]; [19]
  % cell viability reduction vs. control: −9.7%
[2]; [20]
  % cell viability reduction vs. control: −15.8%
[2]; group B (lanreotide non-responsive) mean
  cell viability, change vs. control (signed, negative = reduced): −14%
MTC
  suppressing calcitonin secretion: lack of efficacy
  reducing tumour size and/or increasing patient survival rate: little effect
